# Laboratory results reported in ChEMBL document CHEMBL3988442, “University of Dundee, Small-Polar-MMV Screening Library” (2021).
# Tested on: Schistosoma mansoni
# Experiment: High throughput screening of compounds against Schistosoma mansoni motility
# Type: functional
# Set-up: dose or concentration left out as unconfirmed
row,SMILES,Percent Effect
1,CS(=O)(=O)CCSc1cccc(C#N)c1,-35.13%
2,CC(C#N)CSc1ccccc1NCC(=O)NCc1ccccc1 (stereo unspecified),-63.78%
3,CN(Cc1ncc[nH]1)S(=O)(=O)c1cccc(C(=O)N2CCOCC2)c1,-64.53%
4,CCC(C)N(C)S(=O)(=O)c1ccc(CCNC(C)=O)s1 (stereo unspecified),-44.53%
5,Cc1nn(C)c(N(C)C)c1CNCC(O)COc1ccccc1.Cl (stereo unspecified),-91.65%
6,Cn1cnc(S(=O)(=O)N2CCCC2)c1Cl,-11.59%
7,CN(C)S(=O)(=O)N1CCC(Oc2ccc(C#N)cc2)CC1,21.82%
8,O=S1(=O)CCCN1Cc1coc(-c2cccs2)n1,-11.58%
9,O=C(NCC(O)c1cccs1)c1cccc(Cl)c1 (stereo unspecified),-28.05%
10,Cc1ccsc1[C@@H]1CCN(C(=O)CCC(=O)N2CCCCCC2)C[C@H]1O,-14.8%
11,O=C(NCc1ccoc1)Nc1ccc(CN2CCOC2=O)cc1,-8.505%
12,N#Cc1ccc(CNCC2CCN(CCO)CC2)cc1,-28.87%
13,CCCNC(=O)C(C)NC(=O)CCc1ccccc1Br (stereo unspecified),31.68%
14,CS(=O)(=O)N1CCC(Oc2ccc(C(=O)N3CCSCC3)cc2Cl)CC1,-0.7709%
15,Cc1nc(-c2ccsc2)ccc1C(=O)O,-19.43%
16,Cn1ccnc1-c1cccc(NC(=O)NCCN2CCOCC2)c1,-15.26%
17,CC(C)(C(=O)NCC1CC1)c1ccccc1F,9.48%
18,Cl.NC(=O)COc1ccc(CNCc2ccc(F)cc2F)cc1,-10.97%
19,CCc1nnc2n1CCN(C(=O)c1csc(-c3cnn(C)c3)n1)C2,-4.866%
20,CCC(C)NC(=O)Nc1ccc(CN2CCOC2=O)cc1 (stereo unspecified),3.949%
21,COc1ccccc1NC(=O)NCC(O)(c1ccccc1)C1CC1 (stereo unspecified),57.61%
22,O=C1CCSCC(C(=O)N2CCN(C3CCCCC3)CC2)N1 (stereo unspecified),-48.25%
23,Cc1csc(N2CCN(Cc3ccccn3)CC2C)n1 (stereo unspecified),-63.75%
24,CN(CCCNc1cc(N2CCCC2CO)ncn1)S(C)(=O)=O (stereo unspecified),-51.96%

row,SMILES,Percent Effect
1,Cc1ccc(S(=O)(=O)NC(=O)c2cccc3c2OCCO3)c(C)c1,-13.74%
2,O=C(Nc1nc2c(s1)CN(S(=O)(=O)C1CC1)CC2)c1c(F)cccc1F,15.1%
3,CCc1noc(C(C)N(C)CC(=O)Nc2c(C)cccc2C)n1 (stereo unspecified),-71%
4,O=C(Nc1ccnc(OC2CCOC2)c1)c1cc(F)ccc1F (stereo unspecified),-26.29%
5,Cn1cnnc1S(=O)(=O)C1CCN(S(=O)(=O)c2ccc(F)c(Cl)c2)CC1,-43.49%
6,CSCCCNC(=O)Nc1cccc(-c2nccn2C)c1,-33.04%
7,O=C1CCCCN1Cc1cccc(NC(=O)N2CCSCC2)c1,22.51%
8,COCc1ccccc1C(=O)NCCCN1CCCC1C(=O)N(C)C (stereo unspecified),-41.89%
9,CCOCCOc1ccccc1C(=O)N1CCCC(c2ncc[nH]2)C1 (stereo unspecified),-53.5%
10,CC(=O)N1CCC(C(=O)NCCN2CCCCC2)CC1,25.49%
11,Cc1cccnc1NC(=O)CSc1ccc2c(c1)OCCO2,-40.06%
12,Cn1c(C(F)(F)F)nn(CCNC(=O)NCc2ccccc2)c1=O,16.6%
13,O=C1CCSCC(C(=O)N2CCOCC2)N1 (stereo unspecified),-55.74%
14,CCN1CCCC1CN(CCN(C)C)S(=O)(=O)c1cccc(C#N)c1 (stereo unspecified),27.57%
15,Cc1n[nH]c(C)c1C1CCCN1C(=O)CNC(=O)C(C)(C)C (stereo unspecified),-23.3%
16,O=C(c1cn(-c2cc(N3CCSCC3)ncn2)cn1)N1CCSCC1,-48.35%
17,CCc1nnc(CN(C)c2nc(C3CCCC3)nc3c2cnn3C)o1,1.111%
18,Cc1cc(N2CCC(N(C)C(=O)Nc3ccccc3)CC2)nc(C)n1,-25.09%
19,CN(CCCc1cnn(C)c1)C(=O)C1CCOC1 (stereo unspecified),-54.96%
20,CC(C)c1nc(CN(C)C2CCN(Cc3nc(C4CC4)no3)C2)no1 (stereo unspecified),-10.87%
21,O=C1CN(Cc2nnc(-c3ccc(Br)o3)o2)CCN1,-20.64%
22,COc1ccc(Br)c(C(=O)NCC2CCN(C(=O)c3ccoc3)CC2)c1,-63.91%
23,COCCCC1(CO)CCCN(CCS(C)(=O)=O)C1 (stereo unspecified),-38.37%
24,Cc1cc(-c2nnc(SCC(=O)O)n2C(C)c2ccccc2)nn1C (stereo unspecified),-38.23%

row,SMILES,Percent Effect
1,CCOCCNc1nc(C2CCCC2)nc2c1cnn2C,-80.64%
2,Cc1cc(CN2CCN(C(=O)C(C)C)[C@@H]3CS(=O)(=O)C[C@@H]32)ccc1F,10.81%
3,N#CC1(C(=O)Nc2ccc(OC(F)F)cc2)CCCC1,6.367%
4,CC(C)CNC(=O)NC(=O)CNc1ccccc1SCC(C)C#N (stereo unspecified),-9.977%
5,COCCN(Cc1ccc(F)cc1Cl)C(=O)c1ccncc1,-38.63%
6,COc1ccc(C2CCCCCN2S(=O)(=O)N(C)C)cc1 (stereo unspecified),18.41%
7,CCn1nc(CC(C)C)cc1C(=O)NCCCOC,-69.66%
8,CSCC(C)(O)CNC(=O)c1cc(Br)ccc1Cl (stereo unspecified),-27.72%
9,CN(CCc1ccccc1)c1cnn(CC(=O)N2CCSCC2)c(=O)c1,-28.25%
10,CN(C)C(=O)c1ccc2c(c1)N(C)C(CC(=O)NCCC(C)(C)C)CO2 (stereo unspecified),-13.7%
11,CN(C)C(=O)CNC(=O)Nc1cccc(Cl)c1SC(F)F,-29.89%
12,CN(C)C(C(=O)N1CCCC1)c1ccccc1F (stereo unspecified),-55.33%
13,COC(=O)c1sccc1S(=O)(=O)NCC1(O)CCOc2ccccc21 (stereo unspecified),-15.01%
14,CC(C)(C)c1cc(CN2CC[C@@H](NC(=O)c3cccnc3)[C@H](O)C2)n[nH]1,-5.341%
15,COc1cccc(C(=O)N2CCCC(C(=O)CCc3ccccc3)C2)c1 (stereo unspecified),20.31%
16,COc1cccc(NC(=O)N(CCO)Cc2ccsc2)c1,-62.57%
17,CC(=O)N1CCC(C(=O)NCCN2CCC(C)CC2)CC1,14.05%
18,COc1ccc(C2CCCN2C(=O)CCNc2ncccn2)cc1 (stereo unspecified),-36.49%
19,CSCC(=O)N1C[C@H]2CC[C@@H]1CN(Cc1ccccc1)C2,13.06%
20,CCc1nnc2n1CCN(Cc1csc(-c3cnn(C)c3)n1)C2,-30.99%
21,CNC(=O)CS(=O)(=O)C1CCN(S(=O)(=O)c2c(F)cccc2F)CC1,-27.81%
22,CCCc1n[nH]c(C2CN(CCn3cccn3)CCO2)n1 (stereo unspecified),4.257%
23,CCSc1cc(C(=O)NCCC(=O)Nc2ccccn2)ccn1,-76.69%
